The Kd is the free concentration of one partner at which half of the binding sites on the other are occupied at equilibrium, for simple one-to-one binding. Lower therefore signals tighter binding.

Ends that are not written are not given here.

The target in one assay is T1, L-SH3 domain (Gallus gallus, UniProt P00523).
T1 construct: Residues 81 to 140 of chicken c-SRC were cloned; modified TrpLE leader (Met to Leu, Cys to Ala) (N, cleaved yes); His9 within the C-terminal region of the TrpLE leader (N, cleaved yes); made in house; host or cells: Escherichia coli BL21(DE3) pLysS, plasmid pMMHb-SRC SH3
The experiment in a line: Competitive enzyme-linked immunosorbent assay (ELISA) for L-SH3 binding. The note with it: L- and D-amino acid ligands. Further details: species or system chicken. The procedure:
(§1) The affinity of Pep-DI for the L-SH3 domain was determined by a competitive enzyme-linked immunosorbent assay (ELISA). Single wells of a 96-well plate were coated with 5 μg of the L-SH3 domain (Scott, J. K. and Smith, G. P., Science, 249:386 (1990); Smith, G. P. and Scott, J. K., Methods in Enzymol., 217:228 (1993)). Wells were blocked with BSA, and phages expressing the L-SH3-binding insert […] (SEQ ID NO: 10) were allowed to bind in 10 mM NaHPO4, pH 7.2, 15 mM NaCl, 1 mg/ml of BSA, 0.05% NaN3, and 0.1% Tween 20, in the presence of increasing amounts of competitor peptide. Phage binding was quantified with a rabbit M13 antibody (Stratagene) and alkaline phosphatase-labeled goat antibody to rabbit (Pierce), with a fresh solution of p-nitrophenol phosphate as substrate. Absorbance at 410 nm was determined with a Dynatech micotiter plate reader. […] Relative values for Kd were obtained as described (Minor, D. L., Jr. and Kim, P. S., Nature, 367:660 (1994)). […] A solution of the peptide was titrated into 1 μM SH3 solution in 15 mM NaCl and 10 mM NaHPO4, pH 7.2. Tryptophan fluorescence was induced by excitation at 295 nm (5 nm slit width), and emission was measured at 339 nm (10 nm slit width), with a Hitachi F-4500 fluorescence spectrometer. The dissociation constant was determined by Scatchard analysis.

For another assay, the target named is T2, SH3 domain (Gallus gallus, UniProt P00523).
T2 construct: Residues 81 to 140 of chicken c-SRC were cloned; modified TrpLE leader (Met to Leu, Cys to Ala) (N, cleaved yes); His9 within the C-terminal region of the TrpLE leader (N, cleaved yes); made in house; host or cells: E. coli in M9 medium with (15NH4)2SO4, plasmid pMMHb-SRC SH3
The experiment in a line: Direct tryptophan fluorescence spectroscopy titration. The note with it: 1 μM SH3, 15 mM NaCl and 10 mM NaHPO4, pH 7.2; Scatchard analysis. Format: binding, chicken. How it is done:
as §1

For a further assay, the target named is T3, (L)-SH3 (Gallus gallus, UniProt P00523).
T3 construct: E. coli BL21(DE3) pLysS, pMMHb TrpLE-His9 fusion, cleaved with CNBr
The experiment in a line: Retention of bacterially expressed (L)-SH3 on peptide affinity column. The format is binding. The note with it: residues 81-140 of chicken c-Src. How it is done:
The L- and D-enantiomers of the chicken c-SRC domain were prepared by bacterial expression and chemical synthesis, respectively. The biotinylated, synthetic, 60-amino acid D-SH3 domain was refolded and purified by affinity chromatography, with a D-amino acid version of a known peptide ligand for the SH3 domain (Yu, H., et al., Cell, 76:933 (1994)).
The all D amino acid SH3 domain, sequence […] S-COOH-terminus (SEQ ID No: 1), residues 81-140 of chicken c-SRC, was synthesized on HMP resin (ABI/Perkin Elmer) with an ABI 431A peptide synthesizer and ABI fastmoc cycles (Fmoc chemistry with HBTU activation and capping with acetic anhydride). Protected D-amino acids were obtained from Bachem California., Bachem Bioscience, Advanced Chemtech, and Novabiochem. For D-Ile and D-Thr, the side chain enantiomers were used, in which the chirality of the side chain is also inverted relative to naturally occurring L-Thr and L-Ile. After completion of the synthesis, the NH2 -terminus of the peptide was modified with NHS-LC-biotin II (Pierce). After cleavage, the peptide was lyophilized, dissolved in 6 M guanidine HCl, pH 6.0, and dialyzed against 100 mM NaHPO4 and 100 mM NaCl, pH 6.0, with the use of dialysis tubing with a molecular cutoff of 3,500 daltons (D) (Spectra/Por). […]

As for (D)-RCLSGLRLGLVPCA [Pep-D1], the “competition with the L-amino acid ligand” value on L-SH3 domain is “competition observed for the binding of these two ligands”.

The substance YGGRELPPLPRF-NH2 showed a Kd at SH3 domain of 6 µM. Besides, at (L)-SH3, the “retention of bacterially expressed (L)-SH3 on peptide column” value is on record as “can be retained on the (L)-enantiomer”.

The values above are taken from patent US5780221A, “Identification of enantiomeric ligands” (Whitehead Institute for Biomedical Research, priority 1996, dated 1998).
